21 compounds from ChEMBL document CHEMBL1152364, “Dipeptidyl nitrile inhibitors of Cathepsin L” (Bioorg Med Chem Lett, 2009) can be followed below.

For one assay, the target named is Procathepsin L (Homo sapiens, UniProt P07711). Description: Inhibition of cathepsin L.
For a further assay, the target named is T1, Cathepsin L2 (Homo sapiens, UniProt O60911).
T1 sequence (O60911 whole entry): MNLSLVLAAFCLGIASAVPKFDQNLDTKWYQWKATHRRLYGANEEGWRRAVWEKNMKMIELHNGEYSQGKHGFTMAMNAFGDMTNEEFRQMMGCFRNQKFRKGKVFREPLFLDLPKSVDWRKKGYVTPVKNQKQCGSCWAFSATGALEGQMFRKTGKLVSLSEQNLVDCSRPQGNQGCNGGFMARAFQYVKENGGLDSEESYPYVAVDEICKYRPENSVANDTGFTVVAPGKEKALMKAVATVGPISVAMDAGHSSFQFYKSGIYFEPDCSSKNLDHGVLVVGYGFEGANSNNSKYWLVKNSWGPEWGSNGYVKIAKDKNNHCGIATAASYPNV
As to the kind of experiment: Inhibition of cathepsin L2.

Another assay addresses Cathepsin S (Homo sapiens, UniProt P25774). As to the kind of experiment: Inhibition of cathepsin S.
In the next assay the target is T2, Cathepsin K (Homo sapiens, UniProt P43235).
T2 sequence (P43235 whole entry): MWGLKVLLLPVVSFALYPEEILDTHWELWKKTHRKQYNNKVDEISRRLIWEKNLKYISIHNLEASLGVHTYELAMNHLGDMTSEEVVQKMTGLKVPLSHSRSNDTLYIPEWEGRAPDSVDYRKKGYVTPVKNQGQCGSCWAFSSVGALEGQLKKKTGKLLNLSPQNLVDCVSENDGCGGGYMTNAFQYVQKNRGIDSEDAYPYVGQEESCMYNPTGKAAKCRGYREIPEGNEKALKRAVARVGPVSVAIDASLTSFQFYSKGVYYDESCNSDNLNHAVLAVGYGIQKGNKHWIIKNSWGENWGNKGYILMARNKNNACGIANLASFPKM
Description: Inhibition of cathepsin K.

The target of a further assay is Cathepsin B (Homo sapiens, UniProt P07858). As to the kind of experiment: Inhibition of cathepsin B.

Where only a bound is given, the exact number is not on record here.

Sequence of Procathepsin L (P07711 whole entry): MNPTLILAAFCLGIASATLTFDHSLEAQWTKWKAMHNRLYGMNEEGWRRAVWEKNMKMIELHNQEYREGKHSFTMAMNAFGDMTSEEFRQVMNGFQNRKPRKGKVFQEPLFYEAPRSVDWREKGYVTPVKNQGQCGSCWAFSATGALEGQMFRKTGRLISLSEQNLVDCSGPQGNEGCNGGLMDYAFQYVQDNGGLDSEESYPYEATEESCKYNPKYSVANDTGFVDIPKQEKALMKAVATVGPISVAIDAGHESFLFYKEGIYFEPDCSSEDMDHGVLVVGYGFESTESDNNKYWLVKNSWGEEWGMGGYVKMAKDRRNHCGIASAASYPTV
Sequence of Cathepsin S (P25774 whole entry): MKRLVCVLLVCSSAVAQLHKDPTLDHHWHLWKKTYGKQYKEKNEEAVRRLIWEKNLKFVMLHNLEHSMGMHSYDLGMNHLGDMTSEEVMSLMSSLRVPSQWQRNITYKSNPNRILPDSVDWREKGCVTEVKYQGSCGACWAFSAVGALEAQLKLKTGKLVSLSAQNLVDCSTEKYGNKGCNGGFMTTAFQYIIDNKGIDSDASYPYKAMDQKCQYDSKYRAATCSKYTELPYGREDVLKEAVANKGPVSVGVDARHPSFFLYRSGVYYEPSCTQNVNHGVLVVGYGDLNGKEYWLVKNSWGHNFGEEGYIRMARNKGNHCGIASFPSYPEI

As a reminder, the IC50 is the concentration that gives 50% inhibition. A lower IC50 goes with greater potency in that assay. Turning to `Cc1ccccc1C(=O)N[C@@H](Cc1cccc(Cl)c1)C(=O)NCC#N`, the 50% inhibitory concentration (IC50) was 0.794 µM on Procathepsin L; 5.01 µM against Cathepsin L2; 1.58 µM on Cathepsin S; 5.01 µM against Cathepsin K; more than 10 µM on Cathepsin B.

As to `Cc1cc(C)cc(C(=O)N[C@@H](Cc2cccc(Cl)c2)C(=O)NCC#N)c1`, the IC50 was 0.0501 µM against Procathepsin L; 0.2 µM on Cathepsin L2; 0.316 µM on Cathepsin S; more than 10 µM on Cathepsin K; 7.94 µM against Cathepsin B.

Turning to `Cc1cc(C(=O)N[C@@H](Cc2cccc(Cl)c2)C(=O)NCC#N)c2cc(C)ccc2c1`, the IC50 against Procathepsin L is 0.02 µM; on Cathepsin L2, 1 µM; at Cathepsin S, 1 µM; against Cathepsin K, more than 10 µM; at Cathepsin B, more than 10 µM.

Consider `N#CCNC(=O)[C@H](Cc1cccc(Cl)c1)NC(=O)C1=CCCCC1`, for which the IC50 at Procathepsin L is 0.501 µM; against Cathepsin L2, 0.398 µM; against Cathepsin S, 2 µM; against Cathepsin K, more than 10 µM; at Cathepsin B, more than 10 µM.

For `Cc1nc(C(=O)N[C@@H](Cc2cccc(Cl)c2)C(=O)NCC#N)c(C)o1`, the half-inhibitory concentration (IC50) against Procathepsin L is 0.631 µM; against Cathepsin L2, 2.51 µM; at Cathepsin S, 0.794 µM; at Cathepsin K, 10 µM; against Cathepsin B, more than 10 µM.

For `N#CCNC(=O)[C@H](Cc1cccc(Cl)c1)NC(=O)c1cccc2c1CCCC2`, the half-inhibitory concentration (IC50) against Procathepsin L was 0.398 µM; against Cathepsin L2, more than 10 µM; on Cathepsin S, more than 10 µM; at Cathepsin K it was more than 10 µM; against Cathepsin B, more than 10 µM.

As to `Cc1nn(C)cc1C(=O)N[C@@H](Cc1cccc(Cl)c1)C(=O)NCC#N`, the IC50 against Procathepsin L was 1.26 µM; on Cathepsin L2 it was 1.26 µM; on Cathepsin S it was 1.26 µM; at Cathepsin K, 2.51 µM; against Cathepsin B, more than 10 µM.

`Cc1ccc(C)c(C(=O)N[C@@H](Cc2cccc(Cl)c2)C(=O)NCC#N)c1`: the half-inhibitory concentration (IC50) against Procathepsin L was 0.0794 µM; on Cathepsin L2, 1.58 µM; on Cathepsin S it was 1.26 µM; at Cathepsin K, 6.31 µM; on Cathepsin B, 5.01 µM.

As for `N#CCNC(=O)[C@H](Cc1cccc(Cl)c1)NC(=O)C1CCCCC1`, the 50% inhibitory concentration (IC50) against Procathepsin L is 1.26 µM; against Cathepsin L2 it was 6.31 µM; against Cathepsin S it was 2.51 µM; at Cathepsin K it was more than 10 µM; at Cathepsin B, more than 10 µM.

Consider `Cc1cccc(C(=O)N[C@@H](Cc2cccc(Cl)c2)C(=O)NCC#N)c1`, for which the IC50 at Procathepsin L is 0.251 µM; against Cathepsin L2, 0.794 µM; against Cathepsin S, 0.398 µM; on Cathepsin K, 6.31 µM; against Cathepsin B, 5.01 µM.

`Cc1nc(C)c(C(=O)N[C@@H](Cc2cccc(Cl)c2)C(=O)NCC#N)s1`: the IC50 on Procathepsin L is 0.398 µM; on Cathepsin L2, 0.251 µM; on Cathepsin S, 0.2 µM; at Cathepsin K, 1.26 µM; against Cathepsin B, 10 µM.

As to `N#CCNC(=O)[C@H](Cc1cccc(Cl)c1)NC(=O)c1cccc(Cl)c1`, the half-maximal inhibitory concentration (IC50) against Procathepsin L is 0.0794 µM; against Cathepsin L2, 0.2 µM; against Cathepsin S, 0.2 µM; on Cathepsin K, 6.31 µM; on Cathepsin B it was 3.98 µM.

Regarding `Cc1cc(C(=O)N[C@@H](Cc2cccc(Cl)c2)C(=O)NCC#N)n(C)n1`, the half-inhibitory concentration (IC50) at Procathepsin L is 0.501 µM; at Cathepsin L2, 1.26 µM; against Cathepsin S, 0.794 µM; against Cathepsin K, 6.31 µM; against Cathepsin B, more than 10 µM.

With `CCc1cc(C(=O)N[C@@H](Cc2cccc(Cl)c2)C(=O)NCC#N)n(C)n1`, the 50% inhibitory concentration (IC50) on Procathepsin L was 0.0631 µM; against Cathepsin L2, 0.501 µM; against Cathepsin S it was 0.794 µM; against Cathepsin K, 5.01 µM; on Cathepsin B, 7.94 µM.

On to `N#CCNC(=O)[C@H](Cc1cccc(Cl)c1)NC(=O)C1CCCCCC1`, for which the IC50 on Procathepsin L is 0.316 µM; against Cathepsin L2 it was 6.31 µM; at Cathepsin S, 2.51 µM; on Cathepsin K it was 5.01 µM; against Cathepsin B, more than 10 µM.

In the case of `N#CCNC(=O)[C@H](Cc1cccc(Cl)c1)NC(=O)c1ccnc2ccccc12`, the IC50 is 0.1 µM against Procathepsin L; 3.16 µM at Cathepsin L2; 3.16 µM at Cathepsin S; more than 10 µM on Cathepsin K; more than 10 µM on Cathepsin B.

With `CC(C)c1cc(C(=O)N[C@@H](Cc2cccc(Cl)c2)C(=O)NCC#N)n(C)n1`, the half-maximal inhibitory concentration (IC50) is 0.0794 µM on Procathepsin L; 0.501 µM against Cathepsin L2; 0.794 µM against Cathepsin S; 2 µM against Cathepsin K; 5.01 µM on Cathepsin B.

As for `N#CCNC(=O)[C@H](Cc1cccc(Cl)c1)NC(=O)c1cccc2ccccc12`, the half-inhibitory concentration (IC50) against Procathepsin L was 0.251 µM; against Cathepsin L2 it was 3.98 µM; against Cathepsin S, 3.16 µM; against Cathepsin K it was more than 10 µM; at Cathepsin B it was 10 µM.

On to `Cc1ccc(C(=O)N[C@@H](Cc2cccc(Cl)c2)C(=O)NCC#N)cc1`, for which the concentration for half-maximal inhibition (IC50) was 0.251 µM at Procathepsin L; 1 µM against Cathepsin L2; 0.631 µM at Cathepsin S; 1.26 µM against Cathepsin K; 2.51 µM at Cathepsin B.

`Cc1cc(C(=O)N[C@@H](Cc2cccc(Cl)c2)C(=O)NCC#N)c(C)s1`: the IC50 is 0.0794 µM at Procathepsin L; 0.501 µM against Cathepsin L2; 0.794 µM on Cathepsin S; 5.01 µM at Cathepsin K; 2 µM against Cathepsin B.

`Cc1cccc(C(=O)N[C@@H](Cc2cccc(Cl)c2)C(=O)NCC#N)c1C`: the IC50 against Procathepsin L is 0.316 µM; on Cathepsin L2 it was 3.98 µM; against Cathepsin S it was 2 µM; at Cathepsin K it was more than 10 µM; on Cathepsin B it was more than 10 µM.
